Tests used:
[1] = tested on: irradiated mice (796 cGys, LD50); assay: 30-day survival after irradiation, murine HS-ARS model; type: in vivo, C57B1/6 mice; conditions: 30 days
Procedure: Male and female C57B1/6 mice were purchased from Jackson Laboratories at 10-12 weeks of age. Mice were housed in microisolator cages (5 mice per cage) with sterilized direct contact bedding (Alpha Dri). Animal holding rooms were maintained at 21±3° C. with 30 to 80% relative humidity, with at least 10 air changes per hour of 100% fresh air, and a 12-hour light/dark cycle. Mice were fed ad libitum with commercial rodent chow (Harlan 2018SXC) in cage hoppers and acidified (pH 2.0-3.0) water in sipper tube bottles. The Institutional Animal Care and Use Committee of IUSM approved all protocols.
Mice were placed in single chambers of a plexiglass irradiation pie (Braintree), with 15 mice per pie, alternating groups of males and females within the same pie. The mice in each group of mice, irradiated together in the same pie, were divided equally among all treatment groups to ensure that each group received the same irradiation exposure conditions. […]
Cohorts of 20-40 mice were irradiated with an LD50 dose from a ^137Cs source. […] Animals were monitored for morbidity and mortality twice/daily for 30 days and euthanized when moribund. Referring now to FIG. 2A, survival curves were analyzed with a log-rank test. […]
Moribund mice were scored for signs of early euthanasia based on three parameters: the severity of hunched posture, squinted/closed eyes, and decreased activity. Each criterion was scored on a scale of 1 to 3, with 3 being the most severe. Moribund mice with a score of 8 or 9 were euthanized and the date of death was recorded.
Irradiated mice with therapeutic exogenously provided amounts of PGE2 mitigated the damage to hematopoietic cells observed post-irradiation with dmPGE2 treatment, using a murine HS-ARS model developed by Dr. Orschell at IUSM. […] Animals were monitored for morbidity and mortality twice/daily for 30 days and euthanized when moribund. Survival curves were analyzed with a log-rank test.

[2] = tested on: marrow HPC of irradiated mice; assay: Colony assays: total CFC (CFU-GM, BFU-E, CFU-GEMM) per femur after irradiation; type: in vivo, C57B1/6 mice
Procedure: After 30 days, analysis of total CFC(CFU-GM, BFU-E and CFU-GEMM) was performed in methylcellulose culture. Referring now to FIG. 2B, data are Mean±SEM from N=5 mice per group, each assayed individually.
Irradiated mice were identified by ear punches and treated with either a single subcutaneous dose of dmPGE2 (40 μg/mouse) or vehicle control at 6 hours post-irradiation (N=20 mice per group, evenly split male/female); 6 mg/kg meloxicam dosed once daily on days 2 through 5 post-irradiation or vehicle control (N=20 or 40 mice per group, respectively, evenly split male/female); or a single subcutaneous dose of CoCl2 (60 mg/kg) at 6 hours post-irradiation (N=20 mice per group, evenly split male/female). One mouse per treatment group was housed in each individual cage.
After 35 days, remaining irradiated mice were sacrificed, bone marrow acquired from femurs, and total CFC including CFU-GM, BFU-E and CFU-GEMM were enumerated in 1% methylcellulose/IMDM containing 30% HI-FBS, 1 U/ml rhEPO, 10 ng/ml rhGM-CSF and 50 ng/ml rmSCF as described (Broxmeyer et al., 2007; Fukuda et al., 2007). All cultures were established in triplicate from individual animals, incubated at 37° C., 5% CO2, 5% O2 in air for 7 days and colonies quantified by microscopy.
Referring now to FIG. 2B, after 30 days, analysis of total CFC(CFU-GM, BFU-E and CFU-GEMM) was performed in methylcellulose culture. Data are Mean±SEM from N=5 mice per group, each assayed individually.

HSC = conditions: WO 2010/054271, cited from earlier work
bone marrow HPC = assay: NSAID effect on bone marrow progenitor cell expansion in non-irradiated mice (CFU-GM); type: in vivo; conditions: NSAID twice daily for 4 days, assayed on day 5
Procedure: Mice were administered dual (Indomethacin, meloxicam), COX2 selective (Valdecoxib) or COX1 selective (SC560) inhibitors twice daily for 4 days. Referring now to FIG. 1, on day 5, mice were sacrificed, bone marrow from one femur isolated, total nucleated cells counted on a Hemavet 950FS and CFU-GM determined. Data are Mean±SEM for N=5 mice per group, each assayed individually.

## [Cl][Co][Cl] [CoCl2, cobalt chloride]
[1]; single subcutaneous dose 60 mg/kg at 6 hours post-irradiation, P=0.0011
  percent survival: 95%
[2]; single subcutaneous dose 60 mg/kg at 6 hours post-irradiation, day 35
  CFC in bone marrow: significantly increased CFC in bone marrow

## CCCCC[C@H](O)/C=C/[C@H]1[C@H](O)CC(=O)[C@@H]1C/C=C\CCCC(=O)O [PGE2, prostaglandin E2]
HSC
  homing/engraftment in bone marrow transplants: increased homing/engraftment
HSC; through up-regulation of Survivin
  apoptosis of HSC: decreased apoptosis

## CCCCC(C)(C)[C@H](O)/C=C/[C@H]1[C@H](O)CC(=O)[C@@H]1C/C=C\CCCC(=O)O [dmPGE2, 16,16 dimethyl prostaglandin E2]
[1]; single subcutaneous dose 40 μg/mouse at 6 hours post-irradiation, 796 cGys, control 50% survival, P=0.0011
  percent survival: 95%
[2]; single subcutaneous dose 40 μg/mouse at 6 hours post-irradiation, 796 cGys, day 35
  marrow HPC (total CFC per femur) versus control irradiated mice: significantly higher than control irradiated mice

## Cc1cnc(NC(=O)C2=C(O)c3ccccc3S(=O)(=O)N2C)s1 [meloxicam, 4-hydroxy-2-methyl-N-(5-methyl-2-thiazolyl)-2H-1,2-benzothiazine-3-carboxamide-1,1-dioxide]
[1]; 6 mg/kg once daily on days 2 through 5 post-irradiation, control 50% survival, P=0.034
  percent survival: 80%
Bone marrow HPC
  HPC expansion in bone marrow: increase HPCs within the bone marrow
[2]; 6 mg/kg once daily on days 2 through 5 post-irradiation, femurs 35 days post-irradiation
  bone marrow CFC content versus control: significantly increased bone marrow CFC content compared to control

Source: patent US20140017339A1, “MATERIALS AND METHODS FOR TREATING RADIATION POISONING” (priority 2010, published 2014)
